Measured values from PMC4854315, “Discovery of a novel allosteric inhibitor-binding site in ERK5: comparison with the canonical kinase hinge ATP-binding site” (Acta Crystallographica. Section D, Structural Biology, 2016).

Legend:
Experiment in all cases: Z'-LYTE kinase panel
Assay type in all cases: biochemical
DYRK1A = biological target: T1, DYRK1A (Homo sapiens, UniProt Q13627)
T1 construct: purchased ThermoFisher (SelectScreen, Z'-LYTE)
In short: (§1)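 Z′-LYTE, standard conditions; 10 µM test compound; values = % inhibition; broad panel of 225 kinases.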

PAK3 = biological target: T2, PAK3 (Homo sapiens, UniProt O75914)
T2 construct: purchased ThermoFisher (SelectScreen, Z'-LYTE)
In short: as §1

GSK3B (GSK3 beta) = biological target: T3, GSK3B (GSK3 beta) (Homo sapiens, UniProt P49841)
T3 construct: purchased ThermoFisher (SelectScreen, Z'-LYTE)
In short: as §1

CSNK1G3 (CK1 gamma 3) = biological target: T4, CSNK1G3 (CK1 gamma 3) (Homo sapiens, UniProt Q9Y6M4)
T4 construct: purchased ThermoFisher (SelectScreen, Z'-LYTE)
In short: as §1

TEK (Tie2) = biological target: T5, TEK (Tie2) (Homo sapiens, UniProt Q02763)
T5 construct: purchased ThermoFisher (SelectScreen, Z'-LYTE)
In short: as §1

AMPK A1/B1/G1 = biological target: T6, AMPK A1/B1/G1 (Homo sapiens, UniProt Q13131)
T6 construct: purchased ThermoFisher (SelectScreen, Z'-LYTE)
In short: as §1

PRKCQ (PKC theta) = biological target: T7, PRKCQ (PKC theta) (Homo sapiens, UniProt Q04759)
T7 construct: purchased ThermoFisher (SelectScreen, Z'-LYTE)
In short: as §1

LCK = biological target: T8, LCK (Homo sapiens, UniProt P06239)
T8 construct: purchased ThermoFisher (SelectScreen, Z'-LYTE)
In short: as §1

FGFR1 = biological target: T9, FGFR1 (Homo sapiens, UniProt P11362)
T9 construct: purchased ThermoFisher (SelectScreen, Z'-LYTE)
In short: as §1

MARK4 = biological target: T10, MARK4 (Homo sapiens, UniProt Q96L34)
T10 construct: purchased ThermoFisher (SelectScreen, Z'-LYTE)
T10 sequence (Q96L34 1-752): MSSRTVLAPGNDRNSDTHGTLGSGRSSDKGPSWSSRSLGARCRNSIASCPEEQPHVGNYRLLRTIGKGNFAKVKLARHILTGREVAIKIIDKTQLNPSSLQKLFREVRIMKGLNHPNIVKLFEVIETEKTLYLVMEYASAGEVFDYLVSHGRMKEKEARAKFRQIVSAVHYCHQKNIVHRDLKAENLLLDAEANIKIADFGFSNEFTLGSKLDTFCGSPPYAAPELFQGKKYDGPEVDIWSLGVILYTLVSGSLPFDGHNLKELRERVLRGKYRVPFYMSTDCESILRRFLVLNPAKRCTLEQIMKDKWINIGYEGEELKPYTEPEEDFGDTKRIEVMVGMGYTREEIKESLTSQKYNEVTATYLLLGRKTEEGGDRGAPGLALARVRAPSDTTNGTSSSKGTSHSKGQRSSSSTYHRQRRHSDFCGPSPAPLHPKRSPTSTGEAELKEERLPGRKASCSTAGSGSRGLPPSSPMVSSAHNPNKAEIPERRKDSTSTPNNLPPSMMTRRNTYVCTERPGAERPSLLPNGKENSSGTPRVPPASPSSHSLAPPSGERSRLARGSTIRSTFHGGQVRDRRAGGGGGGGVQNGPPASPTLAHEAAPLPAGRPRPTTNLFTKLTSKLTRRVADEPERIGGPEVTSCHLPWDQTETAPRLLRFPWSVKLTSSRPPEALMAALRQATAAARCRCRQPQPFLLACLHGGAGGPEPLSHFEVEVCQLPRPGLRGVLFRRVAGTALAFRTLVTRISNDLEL
In short: as §1

ROCK1 = biological target: T11, ROCK1 (Homo sapiens, UniProt Q13464)
T11 construct: purchased ThermoFisher (SelectScreen, Z'-LYTE)
In short: as §1

CDK2/cyclin A = biological target: T12, CDK2/cyclin A (Homo sapiens, UniProt P24941)
T12 construct: purchased ThermoFisher (SelectScreen, Z'-LYTE)
In short: as §1

PTK2 (FAK) = biological target: T13, PTK2 (FAK) (Homo sapiens, UniProt Q05397)
T13 construct: purchased ThermoFisher (SelectScreen, Z'-LYTE)
In short: as §1

BRAF = biological target: T14, BRAF (Homo sapiens, UniProt P15056); settings: 10 µM compound; ATP 100
T14 construct: purchased ThermoFisher (SelectScreen, Z'-LYTE)
In short: as §1

GRK5 = biological target: T15, GRK5 (Homo sapiens, UniProt P34947)
T15 construct: purchased ThermoFisher (SelectScreen, Z'-LYTE)
In short: as §1

JAK2 = biological target: T16, JAK2 (Homo sapiens, UniProt O60674)
T16 construct: purchased ThermoFisher (SelectScreen, Z'-LYTE)
In short: as §1

PLK2 = biological target: T17, PLK2 (Homo sapiens, UniProt Q9NYY3)
T17 construct: purchased ThermoFisher (SelectScreen, Z'-LYTE)
In short: as §1

MARK3 = biological target: T18, MARK3 (Homo sapiens, UniProt P27448)
T18 construct: purchased ThermoFisher (SelectScreen, Z'-LYTE)
In short: as §1

EPHB4 = biological target: T19, EPHB4 (Homo sapiens, UniProt P54760)
T19 construct: purchased ThermoFisher (SelectScreen, Z'-LYTE)
T19 sequence (P54760 16-987): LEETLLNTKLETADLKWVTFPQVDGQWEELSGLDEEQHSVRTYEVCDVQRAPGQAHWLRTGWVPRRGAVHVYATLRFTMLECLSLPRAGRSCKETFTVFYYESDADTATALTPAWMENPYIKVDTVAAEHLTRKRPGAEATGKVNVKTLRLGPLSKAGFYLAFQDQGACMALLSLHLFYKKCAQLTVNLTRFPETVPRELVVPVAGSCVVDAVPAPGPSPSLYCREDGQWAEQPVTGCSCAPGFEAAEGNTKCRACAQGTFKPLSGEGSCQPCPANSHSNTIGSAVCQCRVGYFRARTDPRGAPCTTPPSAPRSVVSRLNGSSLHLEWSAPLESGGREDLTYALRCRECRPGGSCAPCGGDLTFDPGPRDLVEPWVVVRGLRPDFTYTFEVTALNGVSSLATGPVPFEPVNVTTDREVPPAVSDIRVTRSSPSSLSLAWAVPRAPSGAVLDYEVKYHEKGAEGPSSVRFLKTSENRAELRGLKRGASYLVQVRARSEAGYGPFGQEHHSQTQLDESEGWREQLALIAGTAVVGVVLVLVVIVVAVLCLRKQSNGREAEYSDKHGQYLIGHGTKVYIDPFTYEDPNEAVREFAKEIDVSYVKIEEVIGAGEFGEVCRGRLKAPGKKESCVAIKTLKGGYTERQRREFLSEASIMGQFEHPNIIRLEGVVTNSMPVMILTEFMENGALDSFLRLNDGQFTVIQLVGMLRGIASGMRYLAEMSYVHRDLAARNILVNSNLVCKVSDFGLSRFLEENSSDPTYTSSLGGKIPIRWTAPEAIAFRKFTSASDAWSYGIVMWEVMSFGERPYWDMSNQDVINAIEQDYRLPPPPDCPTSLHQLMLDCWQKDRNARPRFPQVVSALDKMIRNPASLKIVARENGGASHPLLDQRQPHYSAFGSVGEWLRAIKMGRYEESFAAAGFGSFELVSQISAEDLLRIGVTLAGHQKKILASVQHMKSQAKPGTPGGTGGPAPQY
In short: as §1

T3 sequence (P49841 whole entry): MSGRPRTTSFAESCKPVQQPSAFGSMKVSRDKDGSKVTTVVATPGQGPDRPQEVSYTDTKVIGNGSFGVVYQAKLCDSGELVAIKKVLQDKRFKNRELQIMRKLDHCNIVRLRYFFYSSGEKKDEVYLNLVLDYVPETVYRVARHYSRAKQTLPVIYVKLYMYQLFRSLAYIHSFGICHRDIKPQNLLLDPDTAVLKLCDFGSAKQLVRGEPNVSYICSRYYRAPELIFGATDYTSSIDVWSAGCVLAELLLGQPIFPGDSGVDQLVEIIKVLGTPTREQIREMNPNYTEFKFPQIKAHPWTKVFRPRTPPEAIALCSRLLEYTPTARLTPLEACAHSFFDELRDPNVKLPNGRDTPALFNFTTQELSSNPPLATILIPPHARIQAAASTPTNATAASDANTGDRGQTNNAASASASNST
T6 sequence (Q13131 whole entry): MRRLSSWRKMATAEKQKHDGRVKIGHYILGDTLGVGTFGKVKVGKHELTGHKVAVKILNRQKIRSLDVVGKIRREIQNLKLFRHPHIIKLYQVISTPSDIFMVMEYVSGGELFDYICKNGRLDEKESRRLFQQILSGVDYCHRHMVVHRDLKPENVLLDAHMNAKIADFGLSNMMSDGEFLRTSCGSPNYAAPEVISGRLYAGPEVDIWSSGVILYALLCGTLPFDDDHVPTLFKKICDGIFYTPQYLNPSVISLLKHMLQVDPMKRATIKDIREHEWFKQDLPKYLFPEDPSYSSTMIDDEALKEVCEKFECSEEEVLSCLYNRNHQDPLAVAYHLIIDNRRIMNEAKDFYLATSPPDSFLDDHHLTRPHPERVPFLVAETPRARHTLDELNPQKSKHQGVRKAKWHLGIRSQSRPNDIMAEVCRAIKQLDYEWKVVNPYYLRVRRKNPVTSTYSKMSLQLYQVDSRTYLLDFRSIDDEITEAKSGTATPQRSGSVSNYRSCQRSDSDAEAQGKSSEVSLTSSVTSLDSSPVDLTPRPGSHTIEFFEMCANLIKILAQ
T6 sequence (Q9Y478 whole entry partner): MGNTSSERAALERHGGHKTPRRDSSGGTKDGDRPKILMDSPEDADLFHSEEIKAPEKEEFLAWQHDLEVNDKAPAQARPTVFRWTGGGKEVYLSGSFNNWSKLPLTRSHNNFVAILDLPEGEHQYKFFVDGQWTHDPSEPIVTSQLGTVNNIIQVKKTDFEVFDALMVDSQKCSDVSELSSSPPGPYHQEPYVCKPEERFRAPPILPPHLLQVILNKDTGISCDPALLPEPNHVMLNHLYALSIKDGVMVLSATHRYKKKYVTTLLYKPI
T6 sequence (P54619 whole entry partner): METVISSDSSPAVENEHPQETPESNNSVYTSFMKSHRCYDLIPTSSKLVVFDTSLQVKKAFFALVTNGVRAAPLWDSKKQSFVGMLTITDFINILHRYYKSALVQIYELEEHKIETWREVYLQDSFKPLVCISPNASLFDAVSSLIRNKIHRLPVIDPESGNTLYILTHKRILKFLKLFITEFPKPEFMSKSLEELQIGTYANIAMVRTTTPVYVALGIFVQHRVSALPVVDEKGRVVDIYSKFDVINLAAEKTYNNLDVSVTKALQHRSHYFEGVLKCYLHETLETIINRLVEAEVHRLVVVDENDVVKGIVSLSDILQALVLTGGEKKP
T17 sequence (Q9NYY3 whole entry): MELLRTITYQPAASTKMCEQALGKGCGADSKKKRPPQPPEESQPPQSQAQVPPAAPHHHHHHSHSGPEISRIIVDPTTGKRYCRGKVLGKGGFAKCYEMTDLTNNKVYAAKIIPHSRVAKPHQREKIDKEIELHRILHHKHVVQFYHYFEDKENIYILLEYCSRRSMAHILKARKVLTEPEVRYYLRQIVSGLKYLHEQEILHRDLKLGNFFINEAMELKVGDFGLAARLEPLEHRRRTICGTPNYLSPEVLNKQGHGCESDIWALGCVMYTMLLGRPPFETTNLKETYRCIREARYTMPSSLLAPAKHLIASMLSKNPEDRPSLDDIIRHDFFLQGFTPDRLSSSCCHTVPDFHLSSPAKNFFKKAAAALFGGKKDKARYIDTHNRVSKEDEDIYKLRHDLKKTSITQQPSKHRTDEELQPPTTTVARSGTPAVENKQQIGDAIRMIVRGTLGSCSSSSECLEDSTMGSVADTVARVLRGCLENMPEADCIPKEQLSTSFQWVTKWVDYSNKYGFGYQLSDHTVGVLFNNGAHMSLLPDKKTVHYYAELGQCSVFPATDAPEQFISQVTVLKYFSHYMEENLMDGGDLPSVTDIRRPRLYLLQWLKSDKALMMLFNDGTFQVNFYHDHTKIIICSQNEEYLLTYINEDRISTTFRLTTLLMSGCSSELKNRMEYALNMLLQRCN
T11 sequence (Q13464 whole entry): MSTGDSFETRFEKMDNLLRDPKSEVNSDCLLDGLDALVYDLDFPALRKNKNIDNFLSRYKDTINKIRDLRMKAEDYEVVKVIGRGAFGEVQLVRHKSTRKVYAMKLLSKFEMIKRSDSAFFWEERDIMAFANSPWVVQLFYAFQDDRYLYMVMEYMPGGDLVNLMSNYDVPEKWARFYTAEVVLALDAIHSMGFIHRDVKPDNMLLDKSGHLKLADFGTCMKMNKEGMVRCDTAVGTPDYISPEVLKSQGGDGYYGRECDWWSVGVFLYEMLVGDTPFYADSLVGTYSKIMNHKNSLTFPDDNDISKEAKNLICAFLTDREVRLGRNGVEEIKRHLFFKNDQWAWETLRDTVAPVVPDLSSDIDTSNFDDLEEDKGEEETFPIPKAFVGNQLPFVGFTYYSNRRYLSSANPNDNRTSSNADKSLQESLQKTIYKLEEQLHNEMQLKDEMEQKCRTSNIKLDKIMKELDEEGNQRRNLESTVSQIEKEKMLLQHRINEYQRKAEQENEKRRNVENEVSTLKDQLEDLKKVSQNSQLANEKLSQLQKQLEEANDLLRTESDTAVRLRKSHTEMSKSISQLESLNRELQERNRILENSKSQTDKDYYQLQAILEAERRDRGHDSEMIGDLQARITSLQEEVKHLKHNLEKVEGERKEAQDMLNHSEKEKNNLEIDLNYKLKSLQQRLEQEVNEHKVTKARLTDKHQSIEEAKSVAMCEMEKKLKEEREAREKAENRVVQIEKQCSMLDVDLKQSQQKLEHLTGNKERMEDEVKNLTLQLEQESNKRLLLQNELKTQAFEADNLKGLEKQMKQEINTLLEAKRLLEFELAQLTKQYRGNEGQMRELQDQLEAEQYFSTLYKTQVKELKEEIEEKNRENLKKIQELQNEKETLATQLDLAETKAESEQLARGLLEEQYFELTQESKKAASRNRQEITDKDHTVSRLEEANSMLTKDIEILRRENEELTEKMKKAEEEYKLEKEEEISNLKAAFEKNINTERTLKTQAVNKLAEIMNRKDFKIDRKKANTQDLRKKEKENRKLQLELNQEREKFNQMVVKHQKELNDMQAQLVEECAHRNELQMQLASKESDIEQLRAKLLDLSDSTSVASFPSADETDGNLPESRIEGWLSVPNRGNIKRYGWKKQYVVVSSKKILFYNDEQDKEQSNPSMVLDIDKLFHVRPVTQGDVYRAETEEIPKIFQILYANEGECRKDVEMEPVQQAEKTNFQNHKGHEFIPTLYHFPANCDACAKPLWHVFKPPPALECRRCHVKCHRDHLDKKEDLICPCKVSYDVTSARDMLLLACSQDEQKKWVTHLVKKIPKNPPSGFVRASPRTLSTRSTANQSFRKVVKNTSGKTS
T9 sequence (P11362 22-822): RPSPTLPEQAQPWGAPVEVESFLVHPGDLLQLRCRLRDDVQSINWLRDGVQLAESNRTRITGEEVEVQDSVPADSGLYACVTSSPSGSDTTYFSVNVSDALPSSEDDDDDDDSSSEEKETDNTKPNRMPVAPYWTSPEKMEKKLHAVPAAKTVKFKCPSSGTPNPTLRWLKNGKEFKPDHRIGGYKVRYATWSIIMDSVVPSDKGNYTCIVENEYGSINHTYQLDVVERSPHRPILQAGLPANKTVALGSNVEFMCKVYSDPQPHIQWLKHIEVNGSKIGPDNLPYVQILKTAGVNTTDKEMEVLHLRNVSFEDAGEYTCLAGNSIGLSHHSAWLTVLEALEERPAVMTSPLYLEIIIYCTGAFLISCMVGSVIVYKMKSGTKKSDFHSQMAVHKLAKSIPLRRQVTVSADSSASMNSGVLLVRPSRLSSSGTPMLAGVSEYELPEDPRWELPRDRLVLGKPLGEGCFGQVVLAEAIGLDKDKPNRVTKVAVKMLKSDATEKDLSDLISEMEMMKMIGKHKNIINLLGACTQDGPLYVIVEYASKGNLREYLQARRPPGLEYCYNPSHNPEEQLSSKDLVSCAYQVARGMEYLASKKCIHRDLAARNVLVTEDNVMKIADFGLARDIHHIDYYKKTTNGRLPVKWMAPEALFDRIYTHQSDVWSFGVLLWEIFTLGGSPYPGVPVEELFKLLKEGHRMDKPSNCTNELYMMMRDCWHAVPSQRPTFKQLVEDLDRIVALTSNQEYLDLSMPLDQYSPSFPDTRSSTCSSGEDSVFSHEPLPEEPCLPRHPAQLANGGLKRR
T4 sequence (Q9Y6M4 whole entry): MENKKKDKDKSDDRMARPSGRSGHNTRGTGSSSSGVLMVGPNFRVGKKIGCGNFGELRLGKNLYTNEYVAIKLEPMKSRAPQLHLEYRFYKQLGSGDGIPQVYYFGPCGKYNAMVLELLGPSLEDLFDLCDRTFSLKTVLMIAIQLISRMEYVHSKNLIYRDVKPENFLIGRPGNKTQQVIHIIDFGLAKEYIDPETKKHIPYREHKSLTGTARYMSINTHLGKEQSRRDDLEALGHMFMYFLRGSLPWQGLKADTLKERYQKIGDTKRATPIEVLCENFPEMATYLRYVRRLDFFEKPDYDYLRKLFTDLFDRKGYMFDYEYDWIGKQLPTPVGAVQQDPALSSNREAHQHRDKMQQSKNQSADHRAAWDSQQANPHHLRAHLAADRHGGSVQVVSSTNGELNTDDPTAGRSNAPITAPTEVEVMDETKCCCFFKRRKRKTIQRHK

Cc1ncc(-c2nc(Nc3ccc(C(=O)NCCN4CCCCC4)cc3)ncc2F)n1C(C)C [Compound 3]
inhibition at 10 µM (DYRK1A): 93% | inhibition at 10 µM (PAK3): 37% | inhibition at 10 µM (GSK3B (GSK3 beta)): 101% | inhibition at 10 µM (CSNK1G3 (CK1 gamma 3)): 89% | inhibition at 10 µM (TEK (Tie2)): 73% | inhibition at 10 µM (AMPK A1/B1/G1): 95% | inhibition at 10 µM (PRKCQ (PKC theta)): 80% | inhibition at 10 µM (LCK): 94% | inhibition at 10 µM (FGFR1): 73% | inhibition at 10 µM (MARK4): 62% | inhibition at 10 µM (ROCK1): 27% | inhibition at 10 µM (CDK2/cyclin A): 101% | inhibition at 10 µM (PTK2 (FAK)): 94% | inhibition at 10 µM (BRAF): 90% | inhibition at 10 µM (GRK5): 39% | inhibition at 10 µM (JAK2): 92% | inhibition at 10 µM (PLK2): 48% | inhibition at 10 µM (MARK3): 84% | inhibition at 10 µM (EPHB4): 83%

Cc1cc(Nc2nc(N)nn2C(=O)NC(C)C)ccc1Cl [Compound 5]
inhibition at 10 µM (DYRK1A): 1.48% | inhibition at 10 µM (PAK3): -12% | inhibition at 10 µM (GSK3B (GSK3 beta)): 79% | inhibition at 10 µM (CSNK1G3 (CK1 gamma 3)): 17% | inhibition at 10 µM (TEK (Tie2)): 40% | inhibition at 10 µM (AMPK A1/B1/G1): 23% | inhibition at 10 µM (PRKCQ (PKC theta)): -8% | inhibition at 10 µM (LCK): 29% | inhibition at 10 µM (FGFR1): 17% | inhibition at 10 µM (MARK4): 2.34% | inhibition at 10 µM (ROCK1): 37% | inhibition at 10 µM (CDK2/cyclin A): 56% | inhibition at 10 µM (PTK2 (FAK)): 10% | inhibition at 10 µM (BRAF): 12% | inhibition at 10 µM (GRK5): -0.422% | inhibition at 10 µM (JAK2): 66% | inhibition at 10 µM (PLK2): 63% | inhibition at 10 µM (MARK3): 25% | inhibition at 10 µM (EPHB4): 17%

XMD8-92 [Compound 2, reference compound]
DYRK1A % Inhibition (DYRK1A; 10 µM compound, ATP Km app): 2% | PAK3 % Inhibition (PAK3; 10 µM compound, ATP Km app): 71% | GSK3B (GSK3 beta) % Inhibition (GSK3B (GSK3 beta); 10 µM compound, ATP Km app): 88% | CSNK1G3 (CK1 gamma 3) % Inhibition (CSNK1G3 (CK1 gamma 3); 10 µM compound, ATP Km app): 31% | TEK (Tie2) % Inhibition (TEK (Tie2); 10 µM compound, ATP Km app): 6.54% | AMPK A1/B1/G1 % Inhibition (AMPK A1/B1/G1; 10 µM compound, ATP Km app): 55% | PRKCQ (PKC theta) % Inhibition (PRKCQ (PKC theta); 10 µM compound, ATP Km app): 52% | LCK % Inhibition (LCK; 10 µM compound, ATP Km app): 15% | FGFR1 % Inhibition (FGFR1; 10 µM compound, ATP Km app): 8% | MARK4 % Inhibition (MARK4; 10 µM compound, ATP Km app): 37% | ROCK1 % Inhibition (ROCK1; 10 µM compound, ATP Km app): 16% | CDK2/cyclin A % Inhibition (CDK2/cyclin A; 10 µM compound, ATP Km app): 20% | PTK2 (FAK) % Inhibition (PTK2 (FAK); 10 µM compound, ATP Km app): 47% | BRAF % Inhibition (BRAF): 15% | GRK5 % Inhibition (GRK5; 10 µM compound, ATP Km app): 6% | JAK2 % Inhibition (JAK2; 10 µM compound, ATP Km app): 95% | PLK2 % Inhibition (PLK2; 10 µM compound, ATP Km app): 12% | MARK3 % Inhibition (MARK3; 10 µM compound, ATP Km app): 28% | EPHB4 % Inhibition (EPHB4; 10 µM compound, ATP Km app): 29%
